From PubChem BioAssay AID212 (DTP/NCI, 2004)
“And” between values parts separate entries of the source, which are not always exact repeats. Identical values can stand only once. Inconclusive results are not listed.

System: BDF1 mice, colon carcinoma 38 sc, T/C %
Experiment: NCI In Vivo Anticancer Drug Screen. Data for tumor model Colon Carcinoma 38 (subcutaneous) in B6D2F1 (BDF1) mice
Experimental: The antitumor activity of compounds was measured in mice bearing transplantable tumors. Survival or tumor size were measured and the results are expressed as the measurement made in the treated group (T) divided by the measurement made in the vehicle treated control group (C). The tumor model used in this assay is Colon Carcinoma 38 (subcutaneous) in B6D2F1 (BDF1) mice

[1] = endpoint: median tumor weight (est.), dose: 12.5 mg/kg/injection, schedule: Q07DX002 (ip), vehicle: saline with Tween-80, higher = larger tumour
[2] = endpoint: median tumor weight (est.), dose: 50.0 mg/kg/injection, schedule: Q07DX002 (ip), vehicle: saline with Tween-80, higher = larger tumour
[3] = endpoint: median tumor weight (est.), dose: 100.0 mg/kg/injection, schedule: Q07DX002 (ip), vehicle: saline with Tween-80, higher = larger tumour
[4] = endpoint: median tumor weight (est.), dose: 200.0 mg/kg/injection, schedule: Q07DX002 (ip), vehicle: saline with Tween-80, higher = larger tumour
[5] = endpoint: median tumor weight (est.), dose: 400.0 mg/kg/injection, schedule: Q07DX002 (ip), vehicle: saline with Tween-80, higher = larger tumour
[6] = endpoint: median tumor weight (est.), dose: 50.0 mg/kg/injection, schedule: Q07DX002 (ip), vehicle: saline, higher = larger tumour
[7] = endpoint: median tumor weight (est.), dose: 100.0 mg/kg/injection, schedule: Q07DX002 (ip), vehicle: saline, higher = larger tumour
[8] = endpoint: median tumor weight (est.), dose: 200.0 mg/kg/injection, schedule: Q07DX002 (ip), vehicle: saline, higher = larger tumour
[9] = endpoint: median tumor weight (est.), dose: 25.0 mg/kg/injection, schedule: Q07DX002 (ip), vehicle: saline, higher = larger tumour
[10] = endpoint: median tumor weight (est.), dose: 25.0 mg/kg/injection, schedule: Q07DX002 (ip), vehicle: saline with Tween-80, higher = larger tumour
[11] = endpoint: median tumor weight (est.), dose: 6.25 mg/kg/injection, schedule: Q07DX002 (ip), vehicle: saline with Tween-80, higher = larger tumour
[12] = endpoint: median tumor weight (est.), dose: 12.5 mg/kg/injection, schedule: Q07DX002 (ip), vehicle: saline, higher = larger tumour

For `COC1=C(OC)C(=O)C(C/C=C(\C)CC/C=C(\C)CC/C=C(\C)CC/C=C(\C)CC/C=C(\C)CC/C=C(\C)CC/C=C(\C)CC/C=C(\C)CC/C=C(\C)CCC=C(C)C)=C(C)C1=O`, the T/C [1] was 202 % of control, the T/C [2] was 86 % of control and the T/C [3] was 83 % of control. The T/C [4] was 121 % of control and the T/C [5] was 110 % of control.

With `CCC(C(=O)O)C(=O)O.[NH2-].[NH2-].[Pt+2]` the T/C [6] was 46 % of control, the T/C [7] was 19 % of control and the T/C [8] was 2 % of control.

For `COC1/C=C\C=C(/C)C(=O)NC2=CC(=O)C=C(C2=O)C(OC)C(C)CC(OC)C(OC)C(C)/C=C(/C)C1OC(N)=O` (centres undefined), the T/C (endpoint: median tumor weight (est.), dose: 1.5 mg/kg/injection, schedule: Q07DX002 (ip), vehicle: Klucel (hydroxypropylcellulose) (HPC), higher = larger tumour) was 159 % of control, the T/C (endpoint: median tumor weight (est.), dose: 6.0 mg/kg/injection, schedule: Q07DX002 (ip), vehicle: Klucel (hydroxypropylcellulose) (HPC), higher = larger tumour) was 117 % of control and the T/C (endpoint: median tumor weight (est.), dose: 12.0 mg/kg/injection, schedule: Q07DX002 (ip), vehicle: Klucel (hydroxypropylcellulose) (HPC), higher = larger tumour) was 115 % of control.

For `N/C=N/O`, the T/C [9] was 124 % of control, the T/C [6] was 70 % of control and the T/C [7] was 97 % of control. For the same molecule, the T/C [8] was 92 % of control and the T/C (endpoint: median tumor weight (est.), dose: 400.0 mg/kg/injection, schedule: Q07DX002 (ip), vehicle: saline, higher = larger tumour) was 56 % of control.

With `Cc1ccc(Cl)c2ccccc12` the T/C [1] was 96 % of control and 102 % of control, the T/C [10] was 92 % of control and the T/C [3] was 89 % of control and 96 % of control. The T/C [4] was 88 % of control and 96 % of control and the T/C [5] was 87 % of control.

With `C=C(C)C(=O)O[C@H]1CC2=C[C@@H](C[C@@]3(C)O[C@@H]3[C@H]3OC(=O)C(=C)[C@@H]31)OC2=O` the T/C (endpoint: median tumor weight (est.), dose: 3.12 mg/kg/injection, schedule: Q07DX002 (ip), vehicle: Klucel (hydroxypropylcellulose) (HPC), higher = larger tumour) was 93 % of control, the T/C (endpoint: median tumor weight (est.), dose: 6.25 mg/kg/injection, schedule: Q07DX002 (ip), vehicle: Klucel (hydroxypropylcellulose) (HPC), higher = larger tumour) was 112 % of control and 105 % of control and the T/C (endpoint: median tumor weight (est.), dose: 12.5 mg/kg/injection, schedule: Q07DX002 (ip), vehicle: Klucel (hydroxypropylcellulose) (HPC), higher = larger tumour) was 93 % of control. For the same molecule, the T/C (endpoint: median tumor weight (est.), dose: 25.0 mg/kg/injection, schedule: Q07DX002 (ip), vehicle: Klucel (hydroxypropylcellulose) (HPC), higher = larger tumour) was 90 % of control and 102 % of control and the T/C (endpoint: median tumor weight (est.), dose: 50.0 mg/kg/injection, schedule: Q07DX002 (ip), vehicle: Klucel (hydroxypropylcellulose) (HPC), higher = larger tumour) was 113 % of control and 100 % of control.

`CO[C@@H]1[C@H](O)CC[C@]2(CO2)[C@H]1[C@@]1(C)O[C@@H]1CC=C(C)C` was tested, and the T/C (endpoint: median tumor weight (est.), dose: 3.12 mg/kg/injection, schedule: Q07DX002 (ip), vehicle: saline with Tween-80, higher = larger tumour) was 46 % of control and 55 % of control, the T/C [11] was 50 % of control and 61 % of control and the T/C [2] was 63 % of control and 68 % of control and 71 % of control. The T/C [4] was 92 % of control.

`CSc1cc(=O)n2c3ccccc3c3ccnc1c32` was tested, and the T/C (endpoint: median tumor weight (est.), dose: 1.25 mg/kg/injection, schedule: Q07DX002 (ip), vehicle: saline with Tween-80, higher = larger tumour) was 60 % of control and the T/C (endpoint: median tumor weight (est.), dose: 2.5 mg/kg/injection, schedule: Q07DX002 (ip), vehicle: saline with Tween-80, higher = larger tumour) was 57 % of control and 77 % of control.

`C[N+](C)(C)c1ncnc2c1ncn2C1CCCO1` (centres undefined) was tested, and the T/C [12] was 110 % of control, the T/C [9] was 84 % of control and the T/C [6] was 61 % of control and 77 % of control. The T/C [8] was 65 % of control and 89 % of control.

With `O=C(CCBr)N1CCN(C(=O)CCBr)CC1` the T/C (endpoint: median tumor weight (est.), dose: 10.0 mg/kg/injection, schedule: Q07DX002 (ip), vehicle: saline with Tween-80, higher = larger tumour) was 90 % of control, the T/C (endpoint: median tumor weight (est.), dose: 10.0 mg/kg/injection, schedule: Q07DX002 (ip), vehicle: water, higher = larger tumour) was 172 % of control and the T/C (endpoint: median tumor weight (est.), dose: 20.0 mg/kg/injection, schedule: Q07DX002 (ip), vehicle: saline with Tween-80, higher = larger tumour) was 111 % of control. The T/C (endpoint: median tumor weight (est.), dose: 20.0 mg/kg/injection, schedule: Q07DX002 (ip), vehicle: water, higher = larger tumour) was 109 % of control, the T/C (endpoint: median tumor weight (est.), dose: 40.0 mg/kg/injection, schedule: Q07DX002 (ip), vehicle: saline with Tween-80, higher = larger tumour) was 60 % of control and the T/C (endpoint: median tumor weight (est.), dose: 40.0 mg/kg/injection, schedule: Q07DX002 (ip), vehicle: water, higher = larger tumour) was 157 % of control. For the same molecule, the T/C (endpoint: median tumor weight (est.), dose: 80.0 mg/kg/injection, schedule: Q07DX002 (ip), vehicle: saline with Tween-80, higher = larger tumour) was 69 % of control and 78 % of control, the T/C (endpoint: median tumor weight (est.), dose: 80.0 mg/kg/injection, schedule: Q07DX002 (ip), vehicle: water, higher = larger tumour) was 120 % of control and the T/C (endpoint: median tumor weight (est.), dose: 160.0 mg/kg/injection, schedule: Q07DX002 (ip), vehicle: water, higher = larger tumour) was 91 % of control. For the same molecule, the T/C (endpoint: median tumor weight (est.), dose: 320.0 mg/kg/injection, schedule: Q07DX002 (ip), vehicle: water, higher = larger tumour) was 67 % of control.

In the case of `O=C(O)[C@H](Cc1ccccc1)N1C(=O)c2ccccc2C1=O`, the T/C (endpoint: median tumor weight (est.), dose: 50.0 mg/kg/injection, schedule: Q07DX002 (ip), vehicle: DMSO, higher = larger tumour) is reported as 98 % of control and the T/C (endpoint: median tumor weight (est.), dose: 100.0 mg/kg/injection, schedule: Q07DX002 (ip), vehicle: DMSO, higher = larger tumour) is reported as 108 % of control.

`COC(=O)Nc1cccc(-c2nc3ccc(NC(=O)OC)cc3c(=O)n2-c2ccccc2)c1` was tested, and the T/C (endpoint: median tumor weight (est.), dose: 32.0 mg/kg/injection, schedule: Q07DX003 (ip), vehicle: Klucel (hydroxypropylcellulose) (HPC), higher = larger tumour) was 78 % of control, the T/C (endpoint: median tumor weight (est.), dose: 64.0 mg/kg/injection, schedule: Q07DX003 (ip), vehicle: Klucel (hydroxypropylcellulose) (HPC), higher = larger tumour) was 70 % of control and the T/C (endpoint: median tumor weight (est.), dose: 128.0 mg/kg/injection, schedule: Q07DX003 (ip), vehicle: Klucel (hydroxypropylcellulose) (HPC), higher = larger tumour) was 87 % of control. For the same molecule, the T/C (endpoint: median tumor weight (est.), dose: 256.0 mg/kg/injection, schedule: Q07DX003 (ip), vehicle: Klucel (hydroxypropylcellulose) (HPC), higher = larger tumour) was 30 % of control.

In the case of `O=C1C(NCC(O)CO)=C(N2CC2)C(=O)C(NCC(O)CO)=C1N1CC1` (centres undefined), the T/C (endpoint: median tumor weight (est.), dose: 2.0 mg/kg/injection, schedule: Q07DX002 (ip), vehicle: saline, higher = larger tumour) is reported as 105 % of control, the T/C (endpoint: median tumor weight (est.), dose: 4.0 mg/kg/injection, schedule: Q07DX002 (ip), vehicle: saline, higher = larger tumour) is reported as 60 % of control and the T/C (endpoint: median tumor weight (est.), dose: 4.0 mg/kg/injection, schedule: Q07DX002 (ip), vehicle: suspension in saline, higher = larger tumour) is reported as 66 % of control. For the same molecule, the T/C (endpoint: median tumor weight (est.), dose: 8.0 mg/kg/injection, schedule: Q07DX002 (ip), vehicle: saline, higher = larger tumour) was 77 % of control, the T/C (endpoint: median tumor weight (est.), dose: 8.0 mg/kg/injection, schedule: Q07DX002 (ip), vehicle: suspension in saline, higher = larger tumour) was 100 % of control and the T/C (endpoint: median tumor weight (est.), dose: 16.0 mg/kg/injection, schedule: Q07DX002 (ip), vehicle: saline, higher = larger tumour) was 12 % of control. The T/C (endpoint: median tumor weight (est.), dose: 16.0 mg/kg/injection, schedule: Q07DX002 (ip), vehicle: suspension in saline, higher = larger tumour) was 69 % of control.

In the case of `O=CC(O)C(O)C(O)C(O)C(=O)O.[NH-]C1CCCCC1[NH-].[Pt+2]` (centres undefined), the T/C (endpoint: median tumor weight (est.), dose: 3.12 mg/kg/injection, schedule: Q07DX002 (ip), vehicle: saline, higher = larger tumour) is reported as 56 % of control, the T/C (endpoint: median tumor weight (est.), dose: 6.25 mg/kg/injection, schedule: Q07DX002 (ip), vehicle: saline, higher = larger tumour) is reported as 23 % of control and 24 % of control and 34 % of control and the T/C [12] is reported as 10 % of control and 22 % of control and 34 % of control. For the same molecule, the T/C [9] was 12 % of control and 15 % of control.

In the case of `Cc1ccc2c(c1)N=C(Nc1ccccc1)N=S2(C)=O` (centres undefined), the T/C [1] is reported as 76 % of control, the T/C [10] is reported as 85 % of control and the T/C [2] is reported as 82 % of control. For the same molecule, the T/C [4] was 105 % of control.

In the case of `CC(=O)[C@]1(O)Cc2c(O)c3c(c(O)c2[C@@H](OC2CC(N)C(O)C(C)O2)C1)C(=O)c1c(O)cccc1C3=O` (some centres undefined), the T/C (endpoint: median survival time, dose: 0.7 mg/kg/injection, schedule: Q07DX003 (iv), vehicle: water, higher = longer survival) is reported as 87 % of control, the T/C (endpoint: median survival time, dose: 1.7 mg/kg/injection, schedule: Q07DX003 (iv), vehicle: water, higher = longer survival) is reported as 107 % of control and the T/C (endpoint: median survival time, dose: 2.7 mg/kg/injection, schedule: Q07DX003 (iv), vehicle: water, higher = longer survival) is reported as 176 % of control.

With `CN=C(N)N/N=C(\c1ccccc1)c1ccc(Br)cc1` the T/C (endpoint: median tumor weight (est.), dose: 3.0 mg/kg/injection, schedule: Q07DX002 (ip), vehicle: saline with Tween-80, higher = larger tumour) was 152 % of control, the T/C [11] was 169 % of control and the T/C [1] was 156 % of control. The T/C [2] was 96 % of control.
